Test results from the supplement of paper PMC10627819.

Experiments:
[1] = test system: S. aureus DSM 20231; assay: Bliss interaction score (quartile over a dose matrix) (fitness difference); higher = more antagonism (negative = synergy)
Procedure, shortened: (§1)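 Fitness here means normalised growth, inferred for single drugs from the combination data. Growth was OD595 at entry into stationary phase, divided by the plate's robust no-drug mean and capped at 1. The Bliss score is observed minus expected fitness, with the expectation being the product, and its quartiles span technical, biological and donor/recipient replicates.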

[2] = test system: S. pneumoniae D39V; assay: as above
Procedure, shortened: as §1

[3] = test system: B. subtilis 168; assay: as above
Procedure, shortened: as §1

[4] = test system: S. aureus Newman; assay: as above
Procedure, shortened: as §1

[5] = test system: S. pneumoniae D39V; assay: fitness (endpoint OD595 vs no drug) (fraction); higher = more growth
Procedure, shortened: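 Fitness expresses the optical density reached at the stationary-phase transition as a fraction of the robust mean of no-drug control wells. It is capped at 1. Measurements were OD595 every 30 min for 14 h at 37 °C after inoculation of 384-well plates at OD595 0.01 (30 µl, or 55 µl for S. pneumoniae), minus the first reading.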
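For Bliss interaction score (quartile over a dose matrix) in this document: first quartile when negative (synergy) and third quartile when positive (antagonism).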
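For fitness (endpoint OD595 vs no drug) in this document: OD595 on entry to stationary phase over no-drug wells; at most 1.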

O=C1CN(/N=C/c2ccc([N+](=O)[O-])o2)C(=O)N1 [Nitrofurantoin] + CN[C@H](CC(C)C)C(=O)N[C@H]1C(=O)N[C@@H](CC(N)=O)C(=O)N[C@H]2C(=O)N[C@H]3C(=O)N[C@H](C(=O)N[C@H](C(=O)O)c4cc(O)cc(O)c4-c4cc3ccc4O)[C@H](O)c3ccc(c(Cl)c3)Oc3cc2cc(c3O[C@@H]2O[C@H](CO)[C@@H](O)[C@H](O)[C@H]2O[C@H]2C[C@](C)(N)[C@H](O)[C@H](C)O2)Oc2ccc(cc2Cl)[C@H]1O [Vancomycin]
Conditions | Bliss interaction score
[1] | 0.0253
[2] | 0.142
[3] | 0.0308
[4] | 0.0534

fitness, [5]
Conditions | first compound 1.285 µg/mL | first compound 2 µg/mL | first compound 2.57 µg/mL | first compound 4 µg/mL | first compound 8 µg/mL
partner 0.03125 µg/mL | – | 0.926 | – | 0.959 | 0.892
partner 0.0625 µg/mL | – | 0.882 | – | 0.959 | 0.894
partner 0.125 µg/mL | 0.969 | 0.748 | 0.973 | 0.851 | –
partner 0.25 µg/mL | 0.611 | – | 0.653 | – | –
partner 0.5 µg/mL | 0.0954 | – | 0.0768 | – | –

[5], first compound 5.14 µg/mL, one replicate
Conditions | fitness
partner 0.125 µg/mL | 0.965
partner 0.25 µg/mL | 0.446
partner 0.5 µg/mL | 0.118

CC[C@H]1OC(=O)[C@H](C)[C@@H](O[C@H]2C[C@@](C)(OC)[C@@H](O)[C@H](C)O2)[C@H](C)[C@@H](O[C@@H]2O[C@H](C)C[C@H](N(C)C)[C@H]2O)[C@](C)(OC)C[C@@H](C)C(=O)[C@H](C)[C@@H](O)[C@]1(C)O [Clarithromycin] + CCC[C@@H]1C[C@@H](C(=O)N[C@@H]([C@H]2O[C@H](SC)[C@H](O)[C@@H](O)[C@H]2O)[C@@H](C)O)N(C)C1 [Lincomycin]
Conditions | Bliss interaction score
[1] | -0.12
[2] | 0.0426
[3] | 0.103
[4] | -0.144

fitness, [5], one replicate
Conditions | first compound 0.007812 µg/mL | first compound 0.01562 µg/mL | first compound 0.03125 µg/mL
partner 0.2 µg/mL | 0.614 | 0.678 | 0.559
partner 0.4 µg/mL | 0.545 | 0.619 | 0.395
partner 0.8 µg/mL | 0.0517 | 0.0966 | 0.0574

fitness, [5]
Conditions | first compound 0.0625 µg/mL | first compound 0.07 µg/mL | first compound 0.125 µg/mL | first compound 0.14 µg/mL | first compound 0.25 µg/mL | first compound 0.28 µg/mL
partner 0.2 µg/mL | – | 0.0703 | – | 0.063 | – | 0.0359
partner 0.215 µg/mL | 0.656 | – | 0.487 | – | 0.328 | –
partner 0.4 µg/mL | – | 0.0783 | – | 0.0665 | – | 0.035
partner 0.43 µg/mL | 0.599 | – | 0.367 | – | 0.262 | –
partner 0.8 µg/mL | – | 0.0297 | – | 0.0353 | – | 0.0359
partner 0.86 µg/mL | 0.269 | – | 0.131 | – | 0.0936 | –
